Active and inactive are the calls of the source.
Key:
[1] = system: Elatine triandra; assay: Post-emergence herbicidal activity against Elatine triandra assessed as bleaching of stem/leaf parts; assay type: functional, organism-based; note: test concentration or dose not given here
[2] = system: Rotala indica; assay: Pre-emergence herbicidal activity against Rotala indica assessed as bleaching of stem/leaf parts; assay type: functional, organism-based
[3] = system: Rotala indica; assay: Post-emergence herbicidal activity against Rotala indica assessed as bleaching of stem/leaf parts; assay type: functional, organism-based; note: test concentration or dose not given here
[4] = system: Schoenoplectiella juncoides; assay: Pre-emergence herbicidal activity against Schoenoplectiella juncoides at 2000 g a.i/ha measured after 14 days; assay type: functional, organism-based
[5] = system: Pontederia vaginalis; assay: Post-emergence herbicidal activity against Monochoria vaginalis assessed as bleaching of stem/leaf parts; assay type: functional, organism-based; note: test concentration or dose not given here
[6] = system: Lindernia procumbens; assay: Pre-emergence herbicidal activity against Lindernia procumbens assessed as bleaching of stem/leaf parts; assay type: functional, organism-based
[7] = system: Schoenoplectiella juncoides; assay: Pre-emergence herbicidal activity against Schoenoplectiella juncoides assessed as bleaching of stem/leaf parts; assay type: functional, organism-based
[8] = system: Lindernia procumbens; assay: Pre-emergence herbicidal activity against Lindernia procumbens at 2000 g a.i/ha measured after 14 days; assay type: functional, organism-based
[9] = system: Cyperus difformis; assay: Pre-emergence herbicidal activity against Cyperus difformis assessed as bleaching of stem/leaf parts; assay type: functional, organism-based
[10] = system: Ammannia multiflora; assay: Pre-emergence herbicidal activity against Ammannia multiflora at 2000 g a.i/ha measured after 14 days; assay type: functional, organism-based
[11] = system: Ammannia multiflora; assay: Post-emergence herbicidal activity against Ammannia multiflora assessed as bleaching of stem/leaf parts; assay type: functional, organism-based; note: test concentration or dose not given here
[12] = system: Echinochloa oryzicola; assay: Post-emergence herbicidal activity against Echinochloa oryzicola assessed as bleaching of stem/leaf parts; assay type: functional, organism-based; note: test concentration or dose not given here
[13] = system: Rotala indica; assay: Pre-emergence herbicidal activity against Rotala indica at 2000 g a.i/ha measured after 14 days; assay type: functional, organism-based
[14] = system: Pontederia vaginalis; assay: Pre-emergence herbicidal activity against Monochoria vaginalis at 2000 g a.i/ha measured after 14 days; assay type: functional, organism-based
[15] = system: Echinochloa oryzicola; assay: Pre-emergence herbicidal activity against Echinochloa oryzicola assessed as bleaching of stem/leaf parts; assay type: functional, organism-based
[16] = system: Cyperus difformis; assay: Post-emergence herbicidal activity against Cyperus difformis assessed as bleaching of stem/leaf parts; assay type: functional, organism-based; note: test concentration or dose not given here
[17] = system: Echinochloa oryzicola; assay: Pre-emergence herbicidal activity against Echinochloa oryzicola at 2000 g a.i/ha measured after 14 days; assay type: functional, organism-based
[18] = system: Elatine triandra; assay: Pre-emergence herbicidal activity against Elatine triandra at 2000 g a.i/ha measured after 14 days; assay type: functional, organism-based
[19] = system: Schoenoplectiella juncoides; assay: Post-emergence herbicidal activity against Schoenoplectiella juncoides assessed as bleaching of stem/leaf parts; assay type: functional, organism-based; note: test concentration or dose not given here
[20] = system: Ammannia multiflora; assay: Pre-emergence herbicidal activity against Ammannia multiflora assessed as bleaching of stem/leaf parts; assay type: functional, organism-based
[21] = system: Oryza sativa; assay: Phytotoxicity against Oryza sativa cv. Koshihikari (rice) at 2000 g a.i/ha measured after 14 days; assay type: organism-based; settings: in vivo, 336 h
[22] = system: Elatine triandra; assay: Pre-emergence herbicidal activity against Elatine triandra assessed as bleaching of stem/leaf parts; assay type: functional, organism-based
[23] = system: Cyperus difformis; assay: Pre-emergence herbicidal activity against Cyperus difformis at 2000 g a.i/ha measured after 14 days; assay type: functional, organism-based
[24] = system: Pontederia vaginalis; assay: Pre-emergence herbicidal activity against Monochoria vaginalis assessed as bleaching of stem/leaf parts; assay type: functional, organism-based
[25] = system: Eleocharis acicularis; assay: Pre-emergence herbicidal activity against Eleocharis acicularis assessed as bleaching of stem/leaf parts; assay type: functional, organism-based
[26] = system: Eleocharis acicularis; assay: Pre-emergence herbicidal activity against Eleocharis acicularis at 2000 g a.i/ha measured after 14 days; assay type: functional, organism-based
[27] = system: Eleocharis acicularis; assay: Post-emergence herbicidal activity against Eleocharis acicularis assessed as bleaching of stem/leaf parts; assay type: functional, organism-based; note: test concentration or dose not given here
[28] = system: Lindernia procumbens; assay: Post-emergence herbicidal activity against Lindernia procumbens assessed as bleaching of stem/leaf parts; assay type: functional, organism-based; note: test concentration or dose not given here

| SMILES | Activity [1] | Activity [2] | Activity [3] | Activity [4] | Activity [5] | Activity [6] | Activity [7] | Activity [8] | Activity [9] | Activity [10] | Activity [11] | Activity [12] | Activity [13] | Activity [14] | Activity [15] | Activity [16] | Activity [17] | Activity [18] | Activity [19] | Activity [20] | also measured |
| --- | --- | --- | --- | --- | --- | --- | --- | --- | --- | --- | --- | --- | --- | --- | --- | --- | --- | --- | --- | --- | --- |
| CCCN(CC)C(=O)c1cn(C)nc1OCc1ccc(SC)cc1 | Active | Active | Active | inactive | Active | Active | Active | inactive | Active | inactive | Active | Active | inactive | inactive | Active | Active | inactive | inactive | Active | Active | Activity [21]: Non-toxic; Activity [22]: Active; Activity [23]: inactive; Activity [24]: Active; Activity [25]: Active; Activity [26]: inactive; Activity [27]: Active; Activity [28]: Active |
| CCCN(CC)C(=O)c1cn(C)nc1OCc1cccc(F)c1 | Active | Active | Active | Active | Active | Active | Active | Active | Active | Active | Active | Active | Active | Active | Active | Active | Active | Active | Active | Active | Activity [21]: Non-toxic; Activity [22]: Active; Activity [23]: Active; Activity [24]: Active; Activity [25]: Active; Activity [26]: Active; Activity [27]: Active; Activity [28]: Active |
| CCCN(CC)C(=O)c1cn(C)nc1OCc1ccccc1 | Active | Active | Active | inactive | Active | Active | Active | Active | Active | Active | Active | Active | Active | Active | Active | Active | Active | Active | Active | Active | Activity [21]: Non-toxic; Activity [22]: Active; Activity [23]: Active; Activity [24]: Active; Activity [25]: Active; Activity [26]: Active; Activity [27]: Active; Activity [28]: Active |
| CCCN(CC)C(=O)c1cn(C)nc1OCc1cccc(Cl)c1 | Active | Active | Active | Active | Active | Active | Active | Active | Active | Active | Active | Active | Active | Active | Active | Active | Active | Active | Active | Active | Activity [21]: Non-toxic; Activity [22]: Active; Activity [23]: Active; Activity [24]: Active; Activity [25]: Active; Activity [26]: Active; Activity [27]: Active; Activity [28]: Active |
| CCCN(CC)C(=O)c1cn(C)nc1OCc1ccccc1C(F)(F)F | Active | Active | Active | inactive | Active | Active | Active | inactive | Active | inactive | Active | Active | inactive | inactive | Active | Active | inactive | inactive | Active | Active | Activity [21]: Non-toxic; Activity [22]: Active; Activity [23]: inactive; Activity [24]: Active; Activity [25]: Active; Activity [26]: inactive; Activity [27]: Active; Activity [28]: Active |
| CCCN(CC)C(=O)c1cn(C)nc1OCc1cccc(C#N)c1 | Active | Active | Active | inactive | Active | Active | Active | inactive | Active | inactive | Active | Active | inactive | inactive | Active | Active | inactive | inactive | Active | Active | Activity [21]: Non-toxic; Activity [22]: Active; Activity [23]: inactive; Activity [24]: Active; Activity [25]: Active; Activity [26]: inactive; Activity [27]: Active; Activity [28]: Active |
| CCCN(CC)C(=O)c1cn(C)nc1OC | Active | Active | Active | inactive | Active | Active | Active | inactive | Active | inactive | Active | Active | inactive | inactive | Active | Active | inactive | inactive | Active | Active | Activity [21]: Non-toxic; Activity [22]: Active; Activity [23]: inactive; Activity [24]: Active; Activity [25]: Active; Activity [26]: inactive; Activity [27]: Active; Activity [28]: Active |

— ChEMBL document CHEMBL3046635, “Synthesis and Herbicidal Activity of New Pyrazole-4-carboxamide Derivatives” (J Pestic Sci, 2004)
